Molecules are shown by their SMILES.

For series [1], the system named is bicistronic HCV replicon (replicon RNA, GenBank Accession No. AJ242654). The experiment in a line: HCV Replicon Assay. The class given is cell-based. To be noted: Hepatitis C virus, 72 h, read-out: Replicon IC50.

The compound `Cc1cc2c(cc1F)c(C#N)c(-c1ccc(S(=O)(=O)N[C@@H](C)C(F)(F)F)cn1)n2C1CCCC1` [compound 408, 6-(3-cyano-1-cyclopentyl-5-fluoro-6-methyl-1H-indol-2-yl)-N-[(2S)-1,1,1-trifluoropropan-2-yl]pyridine-3-sulfonamide] returned a melting point of 168 to 171 °C. For the same compound, the IC50 in series [1] is below 500 nM.
The like results for `CSc1ccc2c(C#N)c(-c3ncc(S(=O)(=O)NC(CF)CF)cn3)n(C3CCC3)c2c1` [compound 162, 2-[3-cyano-1-cyclobutyl-6-(methylsulfanyl)-1H-indol-2-yl]-N-(1,3-difluoropropan-2-yl)pyrimidine-5-sulfonamide] were, in that order, 199 to 201 °C and below 500 nM.
`C[C@H](NS(=O)(=O)c1ccc(-c2c(C(N)=O)c3cc(F)c(C4CC4)cc3n2C2CCC2)nc1)C(F)(F)F` [compound 731, 1-cyclobutyl-6-cyclopropyl-5-fluoro-2-(5-{[(2S)-1,1,1-trifluoropropan-2-yl]sulfamoyl}pyridin-2-yl)-1H-indole-3-carboxamide] gave a melting point of 225 to 227 °C. Besides, the IC50 in series [1] was below 500 nM.
The like results for `Cc1cc2c(C#N)c(-c3ccc(S(=O)(=O)N[C@H](C)C(F)(F)F)cn3)n(C3CCC3)c2cc1Cl` [compound 510, 6-(6-chloro-3-cyano-1-cyclobutyl-5-methyl-1H-indol-2-yl)-N-[(2R)-1,1,1-trifluoropropan-2-yl]pyridine-3-sulfonamide] were, in that order, 200 to 200.5 °C and 500 to 2000 nM.
For `Cc1ccc2c(C#N)c(-c3ncc(S(=O)(=O)N[C@H](C)C(F)(F)F)cn3)n(C3CCC3)c2c1` [compound 181, 2-(3-cyano-1-cyclobutyl-6-methyl-1H-indol-2-yl)-N-[(2R)-1,1,1-trifluoropropan-2-yl]pyrimidine-5-sulfonamide], the melting point fell in the range of 143 to 145 °C. The IC50 in series [1] was below 500 nM.
`CCS(=O)(=O)Nc1ccc(-c2c(C#N)c3ccc(OC(C)C)cc3n2C2CCC2)nn1` [compound 276, N-{6-[3-cyano-1-cyclobutyl-6-(propan-2-yloxy)-1H-indol-2-yl]pyridazin-3-yl}ethanesulfonamide] had a melting point of 181 to 183 °C. Besides, the IC50 in series [1] is 2000 to 5000 nM.
In the case of `Cc1ccc2c(C#N)c(-c3ccc(S(=O)(=O)N[C@H](C)C(F)(F)F)cn3)n(-c3ncccn3)c2c1` [compound 688, 6-[3-cyano-6-methyl-1-(pyrimidin-2-yl)-1H-indol-2-yl]-N-[(2R)-1,1,1-trifluoropropan-2-yl]pyridine-3-sulfonamide], the melting point was in the range of 196 to 198 °C. Besides, the half-maximal inhibitory concentration (IC50) in series [1] was below 500 nM.
The like results for `Cc1ccc2c(C#N)c(-c3ncc(S(=O)(=O)NC(C)C)cn3)n(C3CCCC3)c2c1` [compound 74, 2-(3-cyano-1-cyclopentyl-6-methyl-1H-indol-2-yl)-N-(propan-2-yl)pyrimidine-5-sulfonamide] were, in that order, 213 to 214 °C and below 500 nM.
In the case of `N#Cc1c(-c2ccc(NS(=O)(=O)C3CC3)cn2)n(CC2CC2)c2cc(OC(F)F)ccc12` [compound 270, N-{6-[3-cyano-1-(cyclopropylmethyl)-6-(difluoromethoxy)-1H-indol-2-yl]pyridin-3-yl}cyclopropanesulfonamide], the melting point fell in the range of 156 to 158 °C. Further, in series [1], the IC50 was in the range of 2000 to 5000 nM.
In the case of `CC(C)NS(=O)(=O)c1cnc(-c2c(C#N)c3cc(F)ccc3n2C2CCCCC2)nc1` [compound 526, 2-(3-cyano-1-cyclohexyl-5-fluoro-1H-indol-2-yl)-N-(propan-2-yl)pyrimidine-5-sulfonamide], the melting point was 223 to 225 °C. In series [1], the IC50 is below 500 nM.
`Cc1ccc2c(c1)c(C#N)c(-c1ncc(S(=O)(=O)NC(C)C)cn1)n2C1CCCCC1` [compound 200, 2-(3-cyano-1-cyclohexyl-5-methyl-1H-indol-2-yl)-N-(propan-2-yl)pyrimidine-5-sulfonamide] came in with a melting point of 183 to 188 °C. Moreover, the IC50 in series [1] is 500 to 2000 nM.
Consider `CCc1cc2c(C#N)c(-c3ccc(S(=O)(=O)N[C@@H](C)C(F)(F)F)cn3)n(C3CCC3)c2cc1OC(F)F` [compound 647, 6-[3-cyano-1-cyclobutyl-6-(difluoromethoxy)-5-ethyl-1H-indol-2-yl]-N-[(2S)-1,1,1-trifluoropropan-2-yl]pyridine-3-sulfonamide], for which the melting point was 160 to 162 °C. Besides, the 50% inhibitory concentration (IC50) in series [1] was in the range of 500 to 2000 nM.
The like results for `CC(C)n1c(-c2ccc(S(=O)(=O)NC(CF)CF)cn2)c(C#N)c2ccc(OC(F)(F)F)cc21` [compound 69, 6-[3-cyano-1-(propan-2-yl)-6-(trifluoromethoxy)-1H-indol-2-yl]-N-(1,3-difluoropropan-2-yl)pyridine-3-sulfonamide] were, in that order, 116 to 117 °C and below 500 nM.
`C[C@H](NS(=O)(=O)c1ccc(-c2c(C#N)c3ccc(C#N)cc3n2C2CCCC2)nc1)C(F)(F)F` [compound 470, 6-(3,6-dicyano-1-cyclopentyl-1H-indol-2-yl)-N-[(2S)-1,1,1-trifluoropropan-2-yl]pyridine-3-sulfonamide] showed a melting point of 203 to 205 °C. In series [1], the IC50 is below 500 nM.
On the same counts, the results for `CC(C)n1c(-c2ncc(S(=O)(=O)N[C@@H](C)C3CC3)cn2)c(C#N)c2ccc(OC(F)F)cc21` [compound 207, 2-[3-cyano-6-(difluoromethoxy)-1-(propan-2-yl)-1H-indol-2-yl]-N-[(1S)-1-cyclopropylethyl]pyrimidine-5-sulfonamide] are 169 to 170 °C and 500 to 2000 nM.
The like results for `Cc1ccc2c(C#N)c(-c3ccc(S(=O)(=O)N[C@@H](C)C(F)(F)F)cn3)n(C3CCCC3)c2c1` [compound 352, 6-(3-cyano-1-cyclopentyl-6-methyl-1H-indol-2-yl)-N-[(2S)-1,1,1-trifluoropropan-2-yl]pyridine-3-sulfonamide] were, in that order, 176 to 180 °C and below 500 nM.
Compound `N#Cc1c(-c2ccc(S(=O)(=O)NC(CF)CF)cn2)n(C2CCCCC2)c2cc(C3CC3)ccc12` [compound 92, 6-(3-cyano-1-cyclohexyl-6-cyclopropyl-1H-indol-2-yl)-N-(1,3-difluoropropan-2-yl)pyridine-3-sulfonamide] returned a melting point of 193 to 198 °C. Further, the IC50 in series [1] was below 500 nM.
The like results for `Cc1cc2c(cc1F)c(C#N)c(-c1ccc(S(=O)(=O)N[C@@H](C)C(F)(F)F)cn1)n2-c1nncs1` [compound 977, 6-[3-cyano-5-fluoro-6-methyl-1-(1,3,4-thiadiazol-2-yl)-1H-indol-2-yl]-N-[(2S)-1,1,1-trifluoropropan-2-yl]pyridine-3-sulfonamide] were, in that order, 232 to 240 °C and below 500 nM.
On the same counts, the results for `CC(C)NS(=O)(=O)c1cnc(-c2c(C#N)c3ccc(OC(F)F)cc3n2C(C)C)nc1` [compound 171, 2-[3-cyano-6-(difluoromethoxy)-1-(propan-2-yl)-1H-indol-2-yl]-N-(propan-2-yl)pyrimidine-5-sulfonamide] are 193 to 196 °C and below 500 nM.
In turn, `Cc1ccc(-n2c(-c3ccc(S(=O)(=O)NC(CF)CF)cn3)c(C#N)c3cc(F)ccc32)cc1` [compound 356, 6-[3-cyano-5-fluoro-1-(4-methylphenyl)-1H-indol-2-yl]-N-(1,3-difluoropropan-2-yl)pyridine-3-sulfonamide] came in with a melting point of 208 to 210 °C. For the same compound, in series [1], the IC50 was below 500 nM.
On the same counts, the results for `Cc1cc2c(cc1Cl)c(C#N)c(-c1ccc(S(=O)(=O)N[C@@H](C)C(F)(F)F)cn1)n2-c1ccccn1` [compound 803, 6-[5-chloro-3-cyano-6-methyl-1-(pyridin-2-yl)-1H-indol-2-yl]-N-[(2S)-1,1,1-trifluoropropan-2-yl]pyridine-3-sulfonamide] are 210 to 212 °C and below 500 nM.
The like results for `N#Cc1c(-c2ncc(S(=O)(=O)NC(CF)CF)cn2)n(CC2CC2)c2cc(CC(F)F)ccc12` [compound 621, 2-[3-cyano-1-(cyclopropylmethyl)-6-(2,2-difluoroethyl)-1H-indol-2-yl]-N-(1,3-difluoropropan-2-yl)pyrimidine-5-sulfonamide] were, in that order, 180 to 188 °C and below 500 nM.
In turn, `COc1ccc2c(C#N)c(-c3ccc(S(=O)(=O)N[C@@H](C)C4CC4)cn3)n(C3CCCC3)c2c1` [compound 432, 6-(3-cyano-1-cyclopentyl-6-methoxy-1H-indol-2-yl)-N-[(1S)-1-cyclopropylethyl]pyridine-3-sulfonamide] yielded a melting point of 199 to 209 °C. Also, in series [1], the IC50 is below 500 nM.
In turn, `CC(C)n1c(-c2ccc(S(=O)(=O)NC(CF)CF)cn2)c(C#N)c2ccc(Cl)cc21` [compound 63, 6-[6-chloro-3-cyano-1-(propan-2-yl)-1H-indol-2-yl]-N-(1,3-difluoropropan-2-yl)pyridine-3-sulfonamide] came in with a melting point of 200 to 202 °C. Further, in series [1], the IC50 was below 500 nM.
On to `C[C@H](NS(=O)(=O)c1ccc(-c2c(C(N)=O)c3cc(F)c(Cl)cc3n2C2CCC2)nc1)C(F)(F)F` [compound 736, 6-chloro-1-cyclobutyl-5-fluoro-2-(5-{[(2S)-1,1,1-trifluoropropan-2-yl]sulfamoyl}pyridin-2-yl)-1H-indole-3-carboxamide], for which the melting point was 241 to 243 °C. Besides, the IC50 in series [1] is below 500 nM.
On the same counts, the results for `CCc1cc2c(cc1F)c(C#N)c(-c1ncc(S(=O)(=O)N[C@@H](C)C(F)(F)F)cc1C)n2-c1ncccn1` [compound 867, 6-[3-cyano-6-ethyl-5-fluoro-1-(pyrimidin-2-yl)-1H-indol-2-yl]-5-methyl-N-[(2S)-1,1,1-trifluoropropan-2-yl]pyridine-3-sulfonamide] are 192 to 198 °C and below 500 nM.
In the case of `Cc1ccc2c(C#N)c(-c3ccc(S(=O)(=O)NC(CF)CF)cn3)n(-c3ccccc3)c2c1` [compound 111, 6-(3-cyano-6-methyl-1-phenyl-1H-indol-2-yl)-N-(1,3-difluoropropan-2-yl)pyridine-3-sulfonamide], the melting point is 181 to 185 °C. For the same compound, the IC50 in series [1] is below 500 nM.

The IC50 is the concentration at which inhibition is half-maximal. Broadly, the melting point is the temperature of the solid-liquid transition.
